Measured values as given in patent US20080255062A1, “AXON REGENERATION FROM ADULT SENSORY NEURONS” (UNIVERSITY OF MANITOBA, priority 2007, published 2008).
Structures can show the parent of a compound that is named as a salt.

Assays:
adult sensory neurons = assay: Small molecule screen for axon regeneration and outgrowth in adult neural cell suspensions (Example 3); format: cell-based, Sprague-Dawley rat; details: 10 μM drug, 24 hrs incubation; average of 4 fields from 3 wells (12 fields) ± SE; 30×30 μm grid
Text: A single adult male Sprague-Dawley rat weighing between 250 g-450 g was anesthetized by isofluorane induction. After no response to external stimuli, the rat was sacrificed by guillotine.
Unnecessary satellite tissues and nerve fibers were cleaned from the DRG tissue immersed in the cell suspension medium at ambient room temperature using # 5 student forceps and a #10 scalpel blade under a Fisher Scientific Stereomaster® dissecting microscope (Stereomaster is a registered trademark of Fischer Scientific Co., LLC., Hampton, N.H., USA). The cleaned DRG tissue was placed into fresh cell suspension medium.
The cleaned DRG tissue was digested enzymatically to remove collagen fibers and proteinaceous material thereby releasing single DRG cells, as follows. […] The DRG tissue was then transferred to a fresh collagenase enzyme-cell suspension medium and incubated for another hour, after which the collagenase-digested DRG tissue was aspirated and washed twice in cell suspension medium pre-warmed to ambient room temperature.
The washed collagenase-digested DRG tissue was then placed into cell suspension medium to which a trypsin enzyme preparation (Prod. # T5266 from porcine pancreas; supplied by Sigma-Aldrich) was added to a final concentration of 0.25%, and then incubated for twenty minutes at 37° C. in a sterile atmosphere comprising 5% CO2. The trypsin action was stopped by the addition of 1 mL of pre-warmed HyClone fetal bovine serum […] (FBS Prod. # SH30070.01 supplied by Thermo Fisher Scientific, Napean, ON, Canada). The enzyme-digested DRG tissue was then washed twice with cell suspension medium supplemented with 10% FBS to ensure deactivation of trypsin activity. The enzyme-digested DRG tissue was then washed twice with cell suspension medium to remove the FBS.
The enzyme-digested DRG tissue was taken up from the cell suspension medium into a borosilicate glass Pasteur pipette (note that a borosilicate glass pipette was used to minimize DRG tissue sticking to the pipette) and was triturated about 15 times to disrupt the DRG tissue and to disassociate individual cells, after which the large tissue fragments were allowed to settle out of the suspension.
The supernatent containing satellite cells and debris was aspirated and discarded. […] The Ham's F12 medium containing 15% BSA served as a purification column for the supernatent and produced several upper layers containing dead cells, cellular debris and satellite layers over pellet of live neural cells. The upper layers were removed by aspiration with a Pasteur pipette. The cell pellet was resuspended in 1 mL of plating medium which comprised the cell suspension medium amended with 15 mM D-glucose (for a final concentation of 25 mM glucose). The 1 mL of suspended neural cells was then added to 19 mL of plating medium to make a 20-mL suspension of live neural cells.
600 μL of the neural cell suspension was removed to a 1.5 mL Eppendorf centrifuge tube.
The 600-μL reserved neural cell suspension was separated into three 200-μL aliquots which were then each plated into a well. The growth-factor-amended neural cell suspension was then plated into the remaining 93 wells in 200-μL aliquots. DMSO (Cat. # D2650 supplied by Sigma-Aldrich) was added to the three control wells (i.e., containing neural cell suspension that was not amended with growth factor supplements). The 96-well plate was then stored in a direct-heat humidified incubator (Form a CO2 Incubator supplied by Thermo Fisher Scientific) at 37° C. in a sterile atmosphere comprising 5% CO2.
(§1) High resolution and high pixel density digitized images of neurons were acquired. […] Total axon outgrowth was determined by placing a 30×30 μm grid over the image and counting the total number of intercepts with the grid line. Total neurite lengths were determined by the summing the lengths of all the neurites produced by an individual neuron.

[1] = tested on: adult neurals cells isolated from four-month old ZDF rats; assay: Axon outgrowth from adult neural cells of Zucker diabetic fatty rats (Example 5); format: cell-based, Zucker diabetic fatty rat; details: 24-h incubation, 25 mM glucose
Protocol: as §1

[2] = tested on: adult neural cells isolated from three-month-old STZ rats; assay: Axon outgrowth from adult neural cells of streptozotocin diabetic rats (Example 4); format: cell-based, Sprague-Dawley rat (STZ diabetic); details: 24-h incubation, 25 mM glucose
Protocol: as §1

[3] = at the dosages tested (0.1, 1.0, 10.0 μM)

| Compound | Ave number of intersects per cell per well (adult sensory neurons) | other results |
| --- | --- | --- |
| CCC1(c2ccc(N)cc2)CCC(=O)NC1=O (stereo not shown) [Aminoglutethimide] | 5.9 ± 2.0 |  |
| CC(C)NCC(O)COc1ccc(CC(N)=O)cc1 (stereo not shown) [Atenolol] | 6.2 ± 0.2 |  |
| NCC(CC(=O)O)c1ccc(Cl)cc1 (stereo not shown) [Baclofen] | 9.8 ± 2.2 |  |
| CC(C)(Oc1ccc(CCNC(=O)c2ccc(Cl)cc2)cc1)C(=O)O [Bezafibrate] | 6.9 ± 1.7 |  |
| Cn1c(=O)c2c(ncn2C)n(C)c1=O [Caffeine] | 3.25 ± 1.6 |  |
| CCCCOc1cc(C(=O)NCCN(CC)CC)c2ccccc2n1 [Dibucaine hydrochloride] | 2.0 ± 0.3 |  |
| CN[C@@H]1[C@H](O[C@H]2[C@H](O[C@H]3[C@H](O)[C@@H](O)[C@H](NC(=N)N)[C@@H](O)[C@@H]3NC(=N)N)O[C@@H](C)[C@]2(O)CO)O[C@@H](CO)[C@H](O)[C@H]1O [Dihydrostreptomycin HCl] | 2.4 ± 0.6 |  |
| CCN(CC)C(C)CN1c2ccccc2Sc2ccccc21 (stereo not shown) [Ethopropazine HCL] | 4.4 ± 1.4 | axon outgrowth relative to the controls ([1]; 10.0 μM): significantly increased |
| COc1ccccc1OCC(O)CO (stereo not shown) [Guaifenesin] | 5.0 ± 0.9 | axon outgrowth relative to the controls ([2]; 10.0 μM): significantly increased; axon outgrowth relative to the controls ([1]; 0.1 μM): significantly increased |
| CC(C(=O)O)c1cccc(C(=O)c2ccccc2)c1 (stereo not shown) [Ketoprofen] | 7.9 ± 0.7 |  |
| CC(=O)O[C@]1(C(C)=O)CC[C@H]2[C@@H]3C=C(C)C4=CC(=O)CC[C@]4(C)[C@H]3CC[C@@]21C [Megastrol acetate] | 9.2 ± 1.8 |  |
| O=S(=O)(O)CCS [Mesna] | 8.8 ± 3.9 |  |
| C=N[C@@H](C(=O)N[C@@H]1C(=O)N2[C@@H]1SC(C)(C)[C@@H]2C(=O)O)c1ccccc1 [Metampicillin sodium] | 6.7 ± 1.3 |  |
| COc1c2occc2cc2ccc(=O)oc12 [Methoxsalen] | 9.7 ± 2.0 |  |
| Nc1ccc(/N=N/c2ccccc2)c(N)n1 [Phenazopyridine HCl] | 10.2 ± 0.2 |  |
| CN1CCN(CC(=O)N2c3ccccc3C(=O)Nc3cccnc32)CC1 [Pirenzepine HCl] | 4.4 ± 0.7 | axon outgrowth relative to the controls [2, 3]: did not have significant effects; axon outgrowth relative to the controls [1, 3]: did not have significant effects |
| CCCC(CCC)C(=O)[O-].[Na+] [Sodium valproate] | 8.5 ± 1.8 |  |
| Aminopentanoic acid |  | axon outgrowth relative to the controls [2, 3]: did not have significant effects |
| Aminopentanoic acid HCl | 4.3 ± 0.4 |  |
| Hydrocortizone | 10.7 ± 1.7 |  |
